Assays:
[1] = test system: IL10/Nox1^dKO mice; test: Salubrinal treatment of spontaneous colitis in IL10/Nox1^dKO mice; assay type: in vivo
Source text: All SPF-reared C57B1/6-IL10/Nox1^dKO mice developed spontaneously colitis at 6/7 weeks and disease activity index (DAI) scores which became more severe with age, including diarrhea, high incidence of rectal bleeding, change in body and colon weights, and prolapses. None of WT and single-KO mice developed colitis during the time frame studied. […] We next measured epithelial permeability of FITC-dextran in segments of distal colon and indigenous bacterial translocation was identified in the spleen of 7 and 12-week-old mice. […] Consistent with previous findings in patients with UC^30,31, IL10/Nox1^dKO mice expressed almost 50% of microRNAs relevant in defining UC signature.
(§1) To assess the pathogenic role of goblet cells in UC, WT and Nox1^KO mice were subjected to oral administration of DSS or rectal administration of TNBS. […] IRE1beta and ATF6alpha branch signaling were extended in colonic epithelial cells as evidenced by the increased XBP-1 mRNA splicing, the induction of GRP78, GRP94, PDI at both mRNA and protein levels, and dilated cisternae and gross distortion of the ER in goblet cells. […] Consistent with reduced eIF2α phosphorylation, increased expression of PPP1R15A/GADD34, a stress-inducible protein that recruits the catalytic subunit of protein phosphatase 1 and promotes elF2alpha dephosphorylation, was detected in agreement with our previous data in humans^1. EIF2alpha phosphorylation is cytoprotective during ERS, because cells are sensitized to cell death when this pathway is genetically ablated^33 and protected when it is ectopically enforced^34. To test whether a selective pharmacological inhibitor of GADD34-mediated elF2alpha dephosphorylation may alleviate colitis, IL10/Nox1^dKO mice were treated with 1 mg/kg salubrinal^35 for up to three weeks.

[2] = test system: GADD34-mediated elF2alpha dephosphorylation; test: elF2alpha phosphorylation and ER stress markers in colonic mucosa of salubrinal-treated IL10/Nox1^dKO mice; assay type: in vivo
Source text: as §1

[3] = IL10/Nox1^dKO mice, 1 mg/kg salubrinal for up to three weeks
[4] = salubrinal-treated IL10/Nox1^dKO mice, 1 mg/kg for up to three weeks

Q: For `O=C(/C=C/c1ccccc1)NC(NC(=S)Nc1cccc2cccnc12)C(Cl)(Cl)Cl` (stereo not drawn) [salubrinal, 3-phenyl-N-[2,2,2-trichloro-1-[[(8-quinolinylamino)thioxomethyl]amino]ethyl]-2-propenamide], which “histological colitis score throughout the colon” value [1, 3] is on record?
A: The value was “strongly reduced”.

Q: And the immune cell infiltration [1, 3]?
A: Its immune cell infiltration is “markedly prevented”.

Q: And the “mucosal architecture and goblet cells” value [1, 3]?
A: Its value is “restored intact mucosal architecture with normal goblet cells”.

Q: And the “apoptosis of colonic mucosa” value ([1]; IL10/Nox1^dKO mice, 1 mg/kg salubrinal for up to three weeks, anti-apoptotic activity on CHOP expression)?
A: The value was “protected colonic mucosa against apoptosis”.

Q: What about the “amount of colonic and splenic Treg cells” value [1, 4] of the same compound?
A: The value was “strongly decreased to baseline”.

Q: And the “levels of proinflammatory cytokines” value [1, 4]?
A: The value was “strongly decreased to baseline”.

Q: And the elF2alpha phosphorylation ([2]; colonic mucosa, IL10/Nox1^dKO mice, 1 mg/kg salubrinal for up to three weeks)?
A: Its elF2alpha phosphorylation is “robust elF2alpha phosphorylation”.

Q: What about the “Grp78/Bip and Grp94 expression” value [2, 4] of the same compound?
A: Its value is “trend toward reduced”.

Q: And the “localisation of salubrinal-induced phosphorylation of elF2alpha” value [2, 4]?
A: The value was “mainly detected in colonic epithelial cells”.

Source: US20140031389A1, “SCREENING METHODS AND PHARMACEUTICAL COMPOSITIONS FOR THE TREATMENT OF INFLAMMATORY BOWEL DISEASES” (INSERM (INSTITUT NATIONAL DE LA SANTE ET DE LA RECHERCHE …, priority 2011, published 2014)
